Test results from paper PMC2947157, “Development of a FLIPR Assay for the Simultaneous Identification of MrgD Agonists and Antagonists from a Single Screen” (Journal of Biomedicine and Biotechnology, 2010).
Where “and” joins values, the source holds several entries; their conditions need not be identical. Equal values may be shown once. Where a name gives a salt, the structure may show the parent alone. Read-outs that look alike come from different tables or passages of the source.

How the values were obtained:
MrgD [1] = biological target: T1, MrgD (Homo sapiens, UniProt Q8TDS7); assay: FLIPR antagonist dose-response assay against beta-alanine; type: cell-based; conditions: beta-alanine 10 μM, ~30 min preincubation
T1 construct: expressed in transfected cells
Method: (§1) CHO-DUKX-A2 cells stably expressing human or rat MrgD were plated in 384-well tissue-culture-treated polystyrene black clear flat-bottom assay plates (BD Biosciences, San Jose, CA). Thirty μL of 8 × 10^5 cells/mL (24,000 cells/well) were plated and maintained for ~24 hrs at 37°C in a humidified atmosphere containing 5% CO2. After removal of the growth medium, cells were incubated with 30 μL of Ca3 dye (Molecular Devices Corporation, Sunnyvale, CA) containing 2.5 mM freshly prepared probenecid made according to the manufacturer's protocol. Agonists were prepared in 1x Hanks balanced salt solution (HBSS) buffer with 20 mM HEPES buffer. Changes in intracellular Ca^2+ were monitored using the Fluorometric Imaging Plate Reader (FLIPR; Molecular Devices, Sunnyvale, CA). For the double addition protocols, compounds were added by the FLIPR, and readings were taken for 3 min, followed by the addition of the agonist. The change in intracellular calcium [Ca^2+] was monitored as an increase in relative fluorescence units (RFUS), and the difference between maximum and minimum RFU was used to calculate dose-response curves. Data analysis was performed using PRISM 4.0 (GraphPAD Software Inc.). For the LOPAC screen, cells were plated in 96-well tissue-culture-treated polystyrene black clear flat-bottom assay plates (BD Biosciences, San Jose, CA). One hundred μL of cells (40,000 cells/well) were plated and maintained under the same conditions as above. For the assay, growth medium was replaced with 90 μL of Ca3 dye containing 2.5 mM freshly prepared probenecid. The FLIPR added 10 μL of beta-alanine at 100 μM final concentration. For antagonist dose-response assays, the cells were incubated with the compounds for ~30 minutes after which beta-alanine at a final concentration of 10 μM was added by the FLIPR.
Target sequence in this assay (Q8TDS7 whole entry, species assumed): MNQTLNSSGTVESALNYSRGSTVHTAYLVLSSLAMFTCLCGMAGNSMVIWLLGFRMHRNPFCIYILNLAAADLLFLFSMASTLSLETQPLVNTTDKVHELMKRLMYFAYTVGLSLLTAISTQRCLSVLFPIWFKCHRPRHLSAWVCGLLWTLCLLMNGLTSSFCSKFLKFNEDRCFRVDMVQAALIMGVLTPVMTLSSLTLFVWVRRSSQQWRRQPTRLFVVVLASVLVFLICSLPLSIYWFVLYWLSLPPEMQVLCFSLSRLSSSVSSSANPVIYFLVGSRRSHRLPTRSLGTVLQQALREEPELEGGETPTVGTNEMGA

MrgD [2] = biological target: T1, MrgD; assay: Dual-addition FLIPR LOPAC library screen (test compound, then beta-alanine); type: cell-based; conditions: dual-addition format; for Calcium mobilization following addition of beta-alanine (addition 2) in LOPAC screen: beta-alanine 100 μM, Figure 4(b)
Method: as §1
Target sequence in this assay (Q8TDS7 whole entry, species assumed): as above
We developed an assay that could allow both agonists and antagonists to be distinguished in a single screen. Employing such an assay format should enable the identification of tool compounds that may help in elucidating the role of MrgD in pain. The diagram in Figure 3 describes the dual-addition assay format where addition of the test compound (addition 1) is followed by the addition of beta-alanine (addition 2). A FLIPR response immediately upon the addition of a test compound would indicate its activity as an agonist. On the other hand, if the compound behaves as an antagonist, not only will there be a lack of response to this test compound, it will also attenuate the effects of the subsequent addition of beta-alanine. In the event of no receptor engagement by the test compound, a normal agonist response will be observed to beta-alanine. We validated this assay format, which was robust and consistent with a Z′ factor greater than 0.7.
Figure 3 Assay format for the identification of an agonist and antagonist from a single screen. Test compound is added first followed by a second addition of beta-alanine. An agonist will induce a FLIPR response immediately upon the addition of a test compound. An antagonist will cause a pharmacological blockade of the MrgD receptor resulting in attenuation or complete lack of response to beta-alanine. In the event of no receptor engagement, a normal agonist response will be observed from beta-alanine addition.
Figure 4 Representative FLIPR traces obtained from LOPAC screen. Compounds from the LOPAC library were applied followed by the addition of beta-alanine. […]

rat MrgD = biological target: T2, rat MrgD (Rattus norvegicus, UniProt Q7TN41); assay: Calcium mobilization FLIPR assay, agonist dose-response, CHO-DUKX cells expressing rat MrgD; type: cell-based; conditions: for EC50 / EC50 Rat MrgD: CHO-DUKX cells, FLIPR, Table 1: mean ± SD from 2–6 independent experiments; for FLIPR response in rat MrgD expressing cells: result in words
T2 construct: expressed in transfected cells
T2 sequence (Q7TN41 1-319): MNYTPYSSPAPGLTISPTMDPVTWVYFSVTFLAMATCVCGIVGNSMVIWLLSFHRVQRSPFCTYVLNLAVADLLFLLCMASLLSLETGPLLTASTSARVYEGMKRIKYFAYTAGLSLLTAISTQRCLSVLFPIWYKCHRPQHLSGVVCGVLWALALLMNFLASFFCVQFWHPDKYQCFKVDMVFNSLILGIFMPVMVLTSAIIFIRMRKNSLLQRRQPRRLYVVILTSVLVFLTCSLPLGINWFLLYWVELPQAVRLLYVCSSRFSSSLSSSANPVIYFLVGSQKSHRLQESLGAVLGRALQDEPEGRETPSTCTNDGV
Method: (§2) A Kozak sequence and HA epitope tag were incorporated in the forward primer. […] A Kozak sequence and c-Myc epitope tag were incorporated in the forward primer. The resulting PCR products were cloned into the Xba I and EcoR I sites of pHTOP vector, a proprietary derivative of the pED expression vector [12]. For transfection, CHO-DUKX-A2 cells (DHFR(−) CHO cell line stably expressing the tetracycline transactivator) were grown in M alpha media containing 1% MEM nonessential amino acids solution (NEAA), 10% fetal bovine serum (FBS), and 500 ug/mL G418. MrgDpHTOP was transfected using Lipofectamine Plus reagents as per the manufacturer's recommendations. Antibiotic selection was performed using Dulbecco's modified Eagle medium supplemented with 10% FBS, 100 units/mL penicillin, 100 μg/mL streptomycin, 1% NEAA, and 20 nM methotrexate (Calbiochem, San Diego, CA). Cell lines were maintained at 37°C in a humidified atmosphere containing 5% CO2. Surviving colonies were expanded further and used for functional analysis. Clones of human MrgD expressing cell lines were evaluated initially for MrgD transcript level by Taqman analysis and normalized against the house-keeping gene GAPDH (Glyceraldehyde-3-phosphate dehydrogenase).
as §1

MrgD [3] = biological target: T1, MrgD; assay: Calcium mobilization FLIPR assay, agonist dose-response, CHO-DUKX cells expressing human MrgD; type: cell-based; conditions: for FLIPR response in human MrgD expressing cells: result in words
Method: as §2, §1
Target sequence in this assay (Q8TDS7 whole entry): as the sequence (Q8TDS7 whole entry, species assumed) above

[4] = system: beta-alanine-induced calcium mobilization in MrgD CHO-DUKX cells; assay: Evaluation of Gi and Gq coupling of MrgD by FLIPR response to beta-alanine; type: cell-based; conditions: 100 μM beta-alanine
Method: MrgD is known to couple through both Gi and Gq. To further explore the utility of the cell line for a potential secondary assay measuring cAMP, we investigated whether the FLIPR assay was capable of distinguishing the extent of Gi and Gq coupling of MrgD. MrgD CHO-DUKX cells were treated with either the Gi inhibitor pertussis toxin (PTX) overnight or the phospholipase C (PLC) inhibitor U-73122 for 30 or 60 minutes and then evaluated for their responses to beta-alanine.
Figure 2 Evaluation of Gq (Figure 2(a)) and Gi (Figure 2(b)) coupling of MrgD receptors assessed using FLIPR response. MrgD cells were pretreated with the PLC inhibitor (U-73122 at 2 μM for 30 or 60 minutes) or pertussis toxin (100 ng overnight) for blocking Gi coupling to MrgD. FLIPR responses were evaluated by the addition of 100 μM beta-alanine.

[5] = system: MrgD expressing cell lines; conditions: read-out: EC50 for MrgD expressing cell lines, cited from earlier work
[6] = unit inferred, read-out: IC50 as MrgD antagonist (dose response analysis)
[7] = CHO-DUKX cells, FLIPR, Table 1: mean ± SD from 2–6 independent experiments, read-out: EC50 Human MrgD
[8] = CHO-DUKX cells, FLIPR, Table 1: mean ± SD from 2–6 independent experiments
[9] = HA 966 racemate and enantiomers, species not stated at place, racemate value equals human MrgD value of Table 2, read-out: EC50 as MrgD agonist (Figure 5(a))

Compound: CSc1ccc2c(c1)N(CCC1CCCCN1C)c1ccccc1S2 (centres unmarked) [thioridazine hydrochloride]
- IC50 (MrgD [1]; [6]): 1.06 µM
- Calcium mobilization following addition of beta-alanine (addition 2) in LOPAC screen (MrgD [2]): attenuation or complete absence of calcium mobilization

Compound: NC1CCN(O)C1=O (racemic) [(±) HA 966]
- EC50 (rat MrgD): 13.2 µM
- EC50 (MrgD [3]; [7]): 11 µM

Compound: CN[C@@H]1C[C@@H](c2ccc(Cl)c(Cl)c2)c2ccccc21 [indatraline hydrochloride]
- Calcium mobilization following addition of beta-alanine (addition 2) in LOPAC screen (MrgD [2]): attenuation or complete absence of calcium mobilization

Compound: COc1ccc2c(c1)CC[C@@H]1[C@@H]2CC[C@]2(C)[C@@H](NCCCCCCN3C(=O)C=CC3=O)CC[C@@H]12 [U-73122]
- Effect on FLIPR response to beta-alanine ([4]; U-73122 at 2 μM for 30 or 60 minutes): completely blocked

Compound: NCCC(=O)O [Beta-alanine]
- EC50 ([5]; ref 9): 15 ± 1 µM
- EC50 ([5]; ref 11): 8.6 µM
- EC50 (rat MrgD): 1 to 4 µM and 3.77 µM
- EC50 (MrgD [3]; [7]): 1 to 4 µM and 3.76 µM

Compound: CC(C)C[C@H](CN)CC(=O)O [Pregabalin]
- EC50 Rat MrgD (rat MrgD): No effect
- FLIPR response in rat MrgD expressing cells (rat MrgD): failed to induce a response
- EC50 Human MrgD (MrgD [3]; [8]): No effect
- FLIPR response in human MrgD expressing cells (MrgD [3]): failed to induce a response

Compound: NCC(=O)O [Glycine]
- EC50 (rat MrgD): > 100 µM
- FLIPR response in rat MrgD expressing cells (rat MrgD): not
- EC50 (MrgD [3]; [7]): > 100 µM
- FLIPR response in human MrgD expressing cells (MrgD [3]): not

Compound: CN(C)CCCN1c2ccccc2Sc2ccc(Cl)cc21 [chlorpromazine hydrochloride]
- IC50 (MrgD [1]; read-out: IC50 as MrgD antagonist (Figure 5 legend)): 2.7 µM
- Calcium mobilization following addition of beta-alanine (addition 2) in LOPAC screen (MrgD [2]): attenuation or complete absence of calcium mobilization

Compound: CCCN1CCc2cccc3c2[C@H]1Cc1ccc(O)c(O)c1-3.Cl [R(−)-Propylnorapomorphine hydrochloride]
- IC50 (MrgD [1]; [6]): 1.46 µM
- Calcium mobilization following addition of beta-alanine (addition 2) in LOPAC screen (MrgD [2]): attenuation or complete absence of calcium mobilization

Compound: NCC1(CC(=O)O)CCCCC1 [Gabapentin]
- EC50 Rat MrgD (rat MrgD): No effect
- FLIPR response in rat MrgD expressing cells (rat MrgD): failed to induce a response
- EC50 Human MrgD (MrgD [3]; [8]): No effect
- FLIPR response in human MrgD expressing cells (MrgD [3]): failed to induce a response

Compound: NC1CCN(O)C1=O (single isomer, unassigned; (+)) [(+) HA 966]
- EC50 (MrgD [3]; [9]): 106 µM

Compound: pertussis toxin [PTX]
- Reduction in calcium mobilization ([4]; pertussis toxin 100 ng overnight): ~50%

Compound: NC1CCN(O)C1=O (single isomer, unassigned; (-)) [(−) HA 966]
- EC50 (MrgD [3]; [9]): 5.5 µM

Compound: 5, 7 dihydroxytryptamine creatinine sulfate
- EC50 (rat MrgD): 9.7 µM
- EC50 (MrgD [3]; [7]): 5.2 µM

Compound: NCCCC(=O)O [GABA, gamma-aminobutyric acid]
- EC50 (rat MrgD): 49.8 ± 1.5 µM
- FLIPR response in rat MrgD expressing cells (rat MrgD): weakly stimulated
- EC50 (MrgD [3]; [7]): 53 ± 26 µM
- FLIPR response in human MrgD expressing cells (MrgD [3]): weakly stimulated
- Response to test compound (addition 1) in LOPAC screen (MrgD [2]; Figure 4(a)): evoked a response

Compound: CCCn1c(=O)c2[nH]c(-c3ccc(OCC(=O)NCCN)cc3)nc2n(CCC)c1=O [Xanthine amine congener]
- EC50 (rat MrgD): 48.3 µM
- EC50 (MrgD [3]; [7]): > 100 µM
